Experiments:
MSA = biological target: T1, MSA (Homo sapiens, UniProt P02768); test: TLC measurement of pigment not coupled to MSA; assay type: binding
T1 construct: purchased Green Cross Corp., Korea
Protocol: 2 ml of 200 mg/mL MSA was added thereto to prepare the reaction mixture in total volume of 3 mL. […]
Upon completion of the reaction, the amount of the pigment not coupled to MSA was measured by performing thin layer chromatography (TLC) with the pigment-coupled MSA hourly. At this time, methanol and methylene chloride (MeOH:MeCl2) mixture was used as a solvent and the results were quantitatively analyzed by multi-gauge 3.0 software using LAS3000 (Fuji Film).

[1] = Absorption peak and molecular extinction coefficient of pigment-coupled MSA; assay type: physicochemical; details: for Wavelength (absorption peak): scan 350 nm to 850 nm
Protocol: The pigment-coupled MSA solution was loaded in a 96-well plate, which was scanned with visible light ranging between 350 nm and 850 nm to measure the absorbance at the peak of absorption spectrum using Varioskan Flash (Thermo Fisher Scientific Inc., Finland) spectrometer. The molecular extinction coefficient was measured by calculating the absorbance per 1 cm length according to Beer-Lambert law.

T1 sequence (P02768 25-609): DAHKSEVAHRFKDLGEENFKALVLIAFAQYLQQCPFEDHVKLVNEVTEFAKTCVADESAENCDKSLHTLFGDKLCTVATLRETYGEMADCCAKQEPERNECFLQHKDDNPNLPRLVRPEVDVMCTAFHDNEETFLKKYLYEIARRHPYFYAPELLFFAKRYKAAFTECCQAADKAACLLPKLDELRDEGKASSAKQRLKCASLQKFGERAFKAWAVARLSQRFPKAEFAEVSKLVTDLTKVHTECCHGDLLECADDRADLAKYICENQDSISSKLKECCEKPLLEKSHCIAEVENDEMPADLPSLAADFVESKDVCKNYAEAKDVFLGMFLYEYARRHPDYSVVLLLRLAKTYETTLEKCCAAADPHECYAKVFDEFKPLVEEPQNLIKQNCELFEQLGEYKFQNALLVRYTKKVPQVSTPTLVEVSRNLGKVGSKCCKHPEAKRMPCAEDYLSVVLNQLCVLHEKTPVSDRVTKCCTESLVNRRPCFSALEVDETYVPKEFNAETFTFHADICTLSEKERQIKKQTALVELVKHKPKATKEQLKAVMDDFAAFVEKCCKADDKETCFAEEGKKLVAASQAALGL

brilliant blue R
Percentage of pigment not coupled to MSA (MSA; 10 min): 7.8 ± 0.5% | Percentage of pigment not coupled to MSA (MSA; 30 min): 7.6 ± 0.8% | Percentage of pigment not coupled to MSA (MSA; 1 hr): 7.7 ± 0.9% | Percentage of pigment not coupled to MSA (MSA; 2 hr): 6.3 ± 0.5% | Percentage of pigment not coupled to MSA (MSA; 6 hr): 5.9 ± 0.6% | Percentage of pigment not coupled to MSA (MSA; 24 hr): 3.8 ± 0.6%

nitrazine yellow [NY]
Percentage of pigment not coupled to MSA (MSA; 10 min): 9.6 ± 0.5% | Percentage of pigment not coupled to MSA (MSA; 30 min): 8.4 ± 0.5% | Percentage of pigment not coupled to MSA (MSA; 1 hr): 7.2 ± 0.4% | Percentage of pigment not coupled to MSA (MSA; 2 hr): 6.4 ± 0.4% | Percentage of pigment not coupled to MSA (MSA; 6 hr): 0.4 ± 0.6% | Percentage of pigment not coupled to MSA (MSA; 24 hr): 0.1 ± 0.2% | Wavelength (absorption peak) [1]: 560 nm

Nc1c(N=Nc2ccc([N+](=O)[O-])cc2)c(S(=O)(=O)[O-])cc2cc(S(=O)(=O)[O-])c(N=Nc3ccccc3)c(O)c12.[Na+].[Na+] [NBB, naphthol blue black]
Percentage of pigment not coupled to MSA (MSA; 10 min): 0.0 ± 0.0% | Percentage of pigment not coupled to MSA (MSA; 30 min): 0.0 ± 0.0% | Percentage of pigment not coupled to MSA (MSA; 1 hr): 0.0 ± 0.0% | Percentage of pigment not coupled to MSA (MSA; 2 hr): 0.0 ± 0.0% | Percentage of pigment not coupled to MSA (MSA; 6 hr): 0.2 ± 0.3% | Percentage of pigment not coupled to MSA (MSA; 24 hr): 0.0 ± 0.0% | Binding of pigment to MSA (in words) (MSA; Table 2): bind stably and strongly to MSA and high | Binding of pigment to MSA (in words) (MSA; Table 2, listed as naphthol blue black): stably bound | ε (molecular extinction coefficient) ([1]; at absorption peak, per 1 cm, Beer-Lambert law): 62222 | Wavelength (absorption peak) [1]: 620 nm
